Data published in paper PMC2999418, “Biological Activity and Binding Site Characteristics of the PA1b Entomotoxin on Insects from Different Orders” (Journal of Insect Science, 2007).

How the values were obtained:
Ephestia kuehniella = settings: ref Delobel et al 1998; cited from earlier work
Description: Ephestia kuehniella was previously found to be sensitive to the toxin ([Delobel et al 1998]). In contrast, 1000 µg PA1b per g of diet had no effect on the cabbage moth Mamestra brassicae, either on the mortality or on the development and ecdysis of the insects (data not shown).

P. aeruginosa = experiment: Antimicrobial test, bacterial survival; format: cell-based; settings: increasing toxin concentration up to 64 µg-ml^-1, 24 and 48 hours
Description: (§1) A possible antimicrobial and antifungal activity of PA1b was next tested on four bacterial and three fungal species. The experiments were done using an increasing toxin concentration, up to 64 µg-ml^-1.

E. faecium = experiment: Antimicrobial test, bacterial survival; format: cell-based; settings: increasing toxin concentration up to 64 µg-ml^-1, 24 and 48 hours
Description: as §1

E. coli = experiment: Antimicrobial test, bacterial survival; format: cell-based; settings: increasing toxin concentration up to 64 µg-ml^-1, 24 and 48 hours
Description: as §1

S. aureus = experiment: Antimicrobial test, bacterial survival; format: cell-based; settings: increasing toxin concentration up to 64 µg-ml^-1, 24 and 48 hours
Description: as §1

In the case of “ASCNGVCSPFEMPPCGTSACRCIPVGLVIGYCR NPSG (bicyclic or more) [PA1b, plant peptide of 37 amino acids purified from pea (Pisum sativum) seeds; entomotoxic cystine-knot peptide with three disulfide bonds]”, the “sensitivity to the toxin” value (Ephestia kuehniella) is given as “sensitive”, the “effect on bacterial survival” value (P. aeruginosa) is given as “no effect was detected” and the “effect on bacterial survival” value (E. faecium) is given as “no effect was detected”. The “effect on bacterial survival” value (E. coli) was “no effect was detected” and the “effect on bacterial survival” value (S. aureus) was “no effect was detected”.
